One test has as its target T1, Human JNK 3 (Homo sapiens, UniProt P53779).
T1 construct: made in house; host or cells: Escherichia coli
Description: Measurement of JNK 3 inhibition (GST-JNK3, GST-c-Jun substrate, [γ-33P]ATP, SPA beads). The test is classed as biochemical. Here is the method: Measurement of JNK 3 Inhibition
Human JNK 3 was expressed as a fusion protein (GST-JNK 3) with glutathione S-transferase (GST) in Escherichia coli and was purified using glutathione Sepharose 4B beads. The amino acid sequence 1-169 of c-Jun was prepared as a fusion protein (GST-c-Jun) with GST in Escherichia coli, was purified using glutathione Sepharose 4B beads and was used as a substrate. A test compound was solved in 100% dimethyl sulfoxide into 10 mM and was then further diluted with 10% aqueous dimethyl sulfoxide solution to yield a dilution series. In 96-well OPTI plate (available from ParkinElmer Life Sciences), 20 μl of diluted compound, 30 μl of substrate solution (1.2 μg GST-c-Jun, 0.2 μCi [γ-^33P]ATP, 25 mM HEPES pH=7.5, 10 mM MgAcetate, 3.33 μM ATP) and 50 μl of enzyme solution (0.04 μg GST-JNK3, 25 mM HEPES pH=7.5, 10 mM Mg Acetate) were mixed per 1-well, made up to 100 μl, and allowed to react for 30 minutes. After terminating the reaction by adding 100 μl of a reaction terminator (80 mM ATP, 50 mg/ml glutathione SPA beads (available from Amersham Pharmacia Biotech)), the reaction mixture was shaken for 30 minutes. The mixture was centrifuged at room temperature at 1000×g for 5 minutes, and the emission intensity thereof was determined on a TopCount™ illuminator (available from available from PerkinElmer Life Sciences). The activity is expressed by the 50% inhibitory concentration on the enzymatic activity of JNK, i.e., IC50 (nM).

Another test deals with T2, ERK2 (Homo sapiens, UniProt P28482).
T2 construct: purchased Upstate Biotech
The test can be described thus: Measurement of ERK2 inhibition (ELISA, myelin basic protein substrate). The class given is biochemical. The note with it: concentration at which ERK2 enzyme activity was inhibited to 50%; room temperature, 30 minutes; read-out: ERK2 inhibitory activity. As to the method: Measurement of ERK2 Inhibition
A plate for ELISA was coated for 1 hour with 1 μg/well myelin basic protein (available from Upstate Biotech) serving as a reaction substrate. Following washing operation with PBS-Tween, blocking with 1% BSA-PBS was conducted for 3 hours. After washing with PBS-Tween, 25 μl of a reaction solution (20 mM MOPS, 25 mM β-glycerphosphoric acid, 5 mM EGTA, 1 mM orthovanadic acid, 1 mM dithiothreitol), 5 μl of a dilution sample of compound from dilution series which was prepared using 1% DMSO-1% BSA solution, 10 μl of 0.5 μg/ml ERK2 (available from Upstate Bioech), 10 μl of 500 μM ATP were added to made up to 50 μl, and allowed to react at room temperature for 30 minutes. 100 μl of 200 mM EDTA (pH 8.0) was added to stop the reaction, which was then washed with PBS-Tween. This was then added with mouse anti-phospho-myelin basic protein antibody (available from Usptate Biotech), allowed to react for 1 hour, and washed with PBS-Tween, thereafter added with anti-mouse IgG antibody combined with horseradish peroxidase (available from ICN), allowed to react for 1 hour, and washed with PBS-Tween. Subsequently 100 μl of a TMB peroxidase substrate solution (available from KPL) was added, coloring reaction was allowed for 10 minutes, and then measurement at OD 450 nm was conducted. […]
On the technique in general: In an ELISA, binding on a coated surface is turned into a signal by an enzyme label.

Setting [1] is: 50% inhibitory concentration on the enzymatic activity of JNK, 3.33 μM ATP in substrate solution, 30 minutes.
Setting [2] is: selectivity table, compared with ERK2, read-out: JNK3 inhibitory activity.

Where two headings read alike, the source gives them in different places.

T1 sequence (P53779 whole entry): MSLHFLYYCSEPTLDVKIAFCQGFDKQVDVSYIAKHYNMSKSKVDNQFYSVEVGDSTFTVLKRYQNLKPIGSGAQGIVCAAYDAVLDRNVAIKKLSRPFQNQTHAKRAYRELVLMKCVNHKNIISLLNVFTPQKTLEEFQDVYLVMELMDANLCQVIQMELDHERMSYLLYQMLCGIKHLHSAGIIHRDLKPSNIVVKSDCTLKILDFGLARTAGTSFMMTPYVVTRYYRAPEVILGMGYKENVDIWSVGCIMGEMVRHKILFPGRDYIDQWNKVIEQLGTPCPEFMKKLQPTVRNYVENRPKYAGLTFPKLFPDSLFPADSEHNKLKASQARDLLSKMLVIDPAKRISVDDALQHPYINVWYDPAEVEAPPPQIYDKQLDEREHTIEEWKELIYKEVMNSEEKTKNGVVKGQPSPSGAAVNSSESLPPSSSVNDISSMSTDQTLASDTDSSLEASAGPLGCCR
T2 sequence (P28482 whole entry, species assumed): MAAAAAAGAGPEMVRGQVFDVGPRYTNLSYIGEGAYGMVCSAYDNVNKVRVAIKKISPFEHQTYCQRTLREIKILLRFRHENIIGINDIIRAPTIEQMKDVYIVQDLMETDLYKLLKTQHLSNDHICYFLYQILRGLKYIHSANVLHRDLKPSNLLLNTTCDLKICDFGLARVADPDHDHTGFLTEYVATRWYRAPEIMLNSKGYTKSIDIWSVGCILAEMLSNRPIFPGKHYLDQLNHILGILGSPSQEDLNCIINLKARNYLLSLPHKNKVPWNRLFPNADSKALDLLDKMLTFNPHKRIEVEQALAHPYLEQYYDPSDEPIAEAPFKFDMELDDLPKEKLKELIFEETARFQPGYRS

As to `O=C(NC1CC1)c1ccc2[nH]nc(-c3cccc(F)c3)c2n1` [Example 56, 3-(3-Fluorophenyl)-1H-pyrazolo[4,3-b]pyridine-5-carboxylic Acid Cyclopropylamide], the IC50 at Human JNK 3 (setting [1]) was 234 nM.
In the case of `O=C(NCc1ccco1)c1cc2c(/C=C/c3cccc(F)c3)n[nH]c2cc1F` [Example 103, 6-Fluoro-3-[(E)-2-(3-fluorophenyl)-vinyl]-1H-indazole-5-carboxylic Acid (furan-2-ylmethyl)-amide], the IC50 was found to be 55 nM on Human JNK 3 (setting [2]) and 22100 nM at ERK2.
Regarding `O=C(NCc1cccnc1)c1cc2c(/C=C/c3cccc(F)c3)n[nH]c2cc1F` [Example 106, 6-Fluoro-3-[(E)-2-(3-fluorophenyl)-vinyl]-1H-indazole-5-carboxylic Acid (pyridine-3-ylmethyl)-amide], the IC50 against Human JNK 3 (setting [1]) was 195 nM.
Take `CC(C)[C@@H](CO)NC(=O)c1cc(F)c2[nH]nc(/C=C/c3cccnc3)c2c1` [Example 128, 7-Fluoro-3-[(E)-2-(pyridin-3-yl)-vinyl]-1H-indazole-5-carboxylic acid [(1S)-1-hydroxymethyl-2-methylpropyl]-amide]: on Human JNK 3 (setting [1]), the IC50 is 117 nM.
On the same count and under the same terms, next, `O=C(Nc1cc(F)c2[nH]nc(/C=C/c3cccnc3)c2c1)c1ccco1` [Example 136, Furan-2-carboxylic Acid [7-fluoro-3-(2-pyridin-3-yl-vinyl)-1H-indazol-5-yl]-amide]: 167 nM; `O=C(NCc1ccco1)c1ccc2[nH]nc(/C=C/c3cccs3)c2c1F` [Example 213, 4-Fluoro-3-[(E)-2-(thiophen-2-yl)-vinyl]-1H-indazole-5-carboxylic Acid (furan-2-ylmethyl)-amide]: 117 nM.
On the same count and under the same terms, next, `O=C(NC1CC1)c1ccc2[nH]nc(/C=C/c3ccc(F)cc3)c2c1OCCO` [Example 353, 3-[(E)-2-(4-Fluorophenyl)-vinyl]-4-(2-hydroxyethoxy)-1H-indazole-5-carboxylic Acid Cyclopropylamide]: 148 nM; `COc1c(-c2nc(C)n[nH]2)ccc2[nH]nc(/C=C/c3cccc(F)c3)c12` [Example 392, 3-[(E)-2-(3-Fluorophenyl)-vinyl]-4-methoxy-5-(5-methyl-2H-[1,2,4]triazol-3-yl)-1H-indazole]: 403 nM; `O=C(NCc1ccco1)c1cc2c(/C=C/c3cccc(F)c3)n[nH]c2cn1` [Example 466]: 578 nM.
Still for that read-out and setting: next, `O=C(NCc1ccco1)c1cnc2[nH]nc(-c3ccc4ccccc4c3)c2c1` [Example 472, 3-(Naphthalen-2-yl)-1H-pyrazolo[3,4-b]pyridine-5-carboxylic Acid (furan-2-ylmethyl)-amide]: 505 nM; `O=C(Nc1ccc2[nH]nc(/C=C/c3ccc(F)cc3)c2n1)c1ccco1` [Example 495, Furan-2-carboxylic Acid {3-[(E)-2-(4-fluorophenyl)-vinyl]-1H-pyrazolo[4,3-b]pyridin-5-yl}-amide]: 118 nM; `O=C(NC(CO)c1ccccc1)c1cc2c(-c3ccc4ccccc4c3)n[nH]c2s1` (centres unmarked) [Example 522, 3-(Naphthalen-2-yl)-1H-thieno[2,3-c]pyrazol-5-carboxylic Acid (2-hydroxy-1-phenylethyl)amide]: 146 nM.
`CNCc1nnc(-c2cc3c(/C=C/c4ccc(F)cc4)n[nH]c3cc2F)[nH]1` [Example 571, (5-{6-Fluoro-3-[(E)-2-(4-fluorophenyl)-vinyl]-1H-indazol-5-yl}-4H-[1,2,4]triazol-3-ylmethyl)-methyl-amine] came in with an IC50 against Human JNK 3 (setting [1]) of 63 nM.
Still for that read-out and setting: next, `NCc1nnc(-c2cc(F)c3[nH]nc(/C=C/c4ccc(F)cc4)c3c2)[nH]1` [Example 573, C-(5-{7-Fluoro-3-[(E)-2-(4-fluorophenyl)-vinyl]-1H-indazol-5-yl}-4H-[1,2,4]triazol-3-yl)-methylamine]: 66 nM.
Regarding `Fc1ccc(/C=C/c2n[nH]c3c(F)cc(-c4ncc[nH]4)cc23)cc1` [Example 603, 7-Fluoro-3-[(E)-2-(4-fluorophenyl)-vinyl]-5-(1H-imidazol-2-yl)-1H-indazole], the IC50 against Human JNK 3 (setting [1]) was 117 nM.
The compound `C[C@H](NC(=O)c1ccc2[nH]nc(/C=C/c3ccc(F)cc3)c2c1OCCCO)C(N)=O` [Example 786, 3-[(E)-2-(4-Fluorophenyl)-vinyl]-4-(3-hydroxypropoxy)-1H-indazole-5-carboxylic Acid [(1S)-1-carbamoyl-ethyl]-amide] registered an IC50 at Human JNK 3 (setting [1]) of 175 nM.
Still for that read-out and setting: next, `NC(=O)CCOc1c(C(=O)N[C@H](CO)c2ccccc2)ccc2[nH]nc(/C=C/c3ccc(F)cc3)c12` [Example 790, 4-(2-Carbamoylethoxy)-3-[(E)-2-(4-fluorophenyl)-vinyl]-1H-indazole-5-carboxylic Acid [(1S)-2-hydroxy-1-phenyl-ethyl]-amide]: 70 nM; `COc1c(C(=O)NCc2ncco2)ccc2[nH]nc(/C=C/c3ccc(F)cc3F)c12` [Example 992, 3-[(E)-2-(2,4-Difluorophenyl)-vinyl]-4-methoxy-1H-indazole-5-carboxylic Acid (oxazol-2-ylmethyl)amide]: 107 nM; `COc1cc(/C=C/c2n[nH]c3cc(F)c(NC(=O)CC4CC4)cc23)ccc1F` [Example 1003, 2-Cyclopropyl-N-{6-fluoro-3-[(E)-2-(4-fluoro-3-methoxyphenyl)-vinyl]-1H-indazol-5-yl}acetamide]: 122 nM.
On the same count and under the same terms, then `CCCNC(=O)Nc1cc2c(/C=C/c3ccc(F)cc3)n[nH]c2cc1F` [Example 1056, 1-{6-Fluoro-3-[(E)-2-(4-fluorophenyl)-vinyl]-1H-indazol-5-yl}-3-propyl-urea], with 132 nM.
For `O=C(NCc1ccco1)c1ccc2[nH]nc(/C=C/c3cccc(F)c3)c2c1` [Reference example 1, 3-[(E)-2-(3-fluorophenyl)-vinyl]-1H-indazole-5-carboxylic acid (furan-2-ylmethyl)-amide, reference compound], the IC50 at Human JNK 3 (setting [2]) turned out to be 92 nM; at ERK2, 710 nM.

The values above are taken from patent publication US20050208582A1, “Pyrazole compounds and pharmaceutical compositions comprising the compound” (priority 2002, published 2005).
